Assays:
CDK2 (human) [1] = target: CDK2 (human) (UniProt P24941); assay: Cell-Based Assay
EGFR (human) = EGFR (human) (UniProt P00533)
CDK2 (human) [2] = target: CDK2 (human) (UniProt P24941); assay: Enzyme Assay

Chain of EGFR (human) (P00533 whole entry, looked up): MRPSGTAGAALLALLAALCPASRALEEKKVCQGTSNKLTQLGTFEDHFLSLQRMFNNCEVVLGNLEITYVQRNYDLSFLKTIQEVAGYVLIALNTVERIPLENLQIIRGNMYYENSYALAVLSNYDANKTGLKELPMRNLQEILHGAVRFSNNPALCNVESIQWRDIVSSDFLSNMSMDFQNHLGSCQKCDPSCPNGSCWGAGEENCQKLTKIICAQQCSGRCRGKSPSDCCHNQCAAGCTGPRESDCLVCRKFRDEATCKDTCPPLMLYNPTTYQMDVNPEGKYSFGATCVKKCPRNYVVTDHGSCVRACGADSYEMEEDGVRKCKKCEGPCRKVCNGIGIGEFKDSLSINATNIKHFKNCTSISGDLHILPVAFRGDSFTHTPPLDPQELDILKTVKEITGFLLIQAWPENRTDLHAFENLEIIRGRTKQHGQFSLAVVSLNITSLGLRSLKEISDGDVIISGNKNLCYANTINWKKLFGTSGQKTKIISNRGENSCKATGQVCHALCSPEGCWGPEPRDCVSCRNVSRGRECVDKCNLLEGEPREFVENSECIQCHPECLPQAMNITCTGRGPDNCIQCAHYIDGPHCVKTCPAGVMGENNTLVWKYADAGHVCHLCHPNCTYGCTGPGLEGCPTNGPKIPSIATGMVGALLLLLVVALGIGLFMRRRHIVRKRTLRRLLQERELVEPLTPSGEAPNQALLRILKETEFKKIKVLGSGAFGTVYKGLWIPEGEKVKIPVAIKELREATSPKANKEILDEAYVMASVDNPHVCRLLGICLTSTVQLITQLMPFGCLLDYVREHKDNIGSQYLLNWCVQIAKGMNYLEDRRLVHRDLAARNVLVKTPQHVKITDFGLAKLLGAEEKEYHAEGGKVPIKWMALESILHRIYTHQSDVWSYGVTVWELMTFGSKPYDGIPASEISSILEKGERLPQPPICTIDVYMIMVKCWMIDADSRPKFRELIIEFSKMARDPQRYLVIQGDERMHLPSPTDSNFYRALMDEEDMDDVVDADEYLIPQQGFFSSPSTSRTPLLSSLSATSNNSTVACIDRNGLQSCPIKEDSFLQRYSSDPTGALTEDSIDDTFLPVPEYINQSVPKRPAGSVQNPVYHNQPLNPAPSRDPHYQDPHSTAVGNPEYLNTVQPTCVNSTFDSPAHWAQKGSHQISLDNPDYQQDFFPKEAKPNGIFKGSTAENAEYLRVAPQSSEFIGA

Cc1nc(NN2C(=O)C(=Cc3cccs3)SC2=S)nc(-c2ccc(O)cc2O)c1C(=O)Nc1cccc([N+](=O)[O-])c1
GI50 (CDK2 (human) [1]; a431): 2.78 µM
GI50 (CDK2 (human) [1]; hct 116): 4.5 µM
IC50 (EGFR (human)): 80.6 µM
IC50 (CDK2 (human) [2]): 0.3 µM

Cc1nc(NN=Cc2cccs2)nc(-c2ccc(O)cc2O)c1C(=O)Nc1cccc([N+](=O)[O-])c1
GI50 (CDK2 (human) [1]; a431): 19.1 µM
GI50 (CDK2 (human) [1]; hct 116): 38.2 µM
IC50 (EGFR (human)): > 100 µM
IC50 (CDK2 (human) [2]): 22.9 µM

CC1=CN(c2nc(C)c(C(=O)Nc3cccc([N+](=O)[O-])c3)c(-c3ccc(O)cc3O)n2)C(=O)C1=Cc1cccs1
GI50 (CDK2 (human) [1]; a431): 37.1 µM
GI50 (CDK2 (human) [1]; hct 116): 26.5 µM
IC50 (EGFR (human)): > 100 µM
IC50 (CDK2 (human) [2]): 3.1 µM

Clc1cccc(Nc2ncnc3cc4c(cc23)OCCO4)c1
IC50 (EGFR (human)): 0.0008 µM

Cc1nc(NN2C(=O)C(=Cc3ccco3)SC2=S)nc(-c2ccc(O)cc2O)c1C(=O)Nc1cccc([N+](=O)[O-])c1
GI50 (CDK2 (human) [1]; a431): 28.9 µM
GI50 (CDK2 (human) [1]; hct 116): > 100 µM
IC50 (EGFR (human)): 99.3 µM
IC50 (CDK2 (human) [2]): 0.4 µM

Cc1nc(NN=Cc2ccco2)nc(-c2ccc(O)cc2O)c1C(=O)Nc1cccc([N+](=O)[O-])c1
GI50 (CDK2 (human) [1]; a431): 2.91 µM
GI50 (CDK2 (human) [1]; hct 116): 8.89 µM
IC50 (EGFR (human)): > 100 µM
IC50 (CDK2 (human) [2]): 3.8 µM

Cc1nc(NN2C(=O)C(=Cc3ccccc3)SC2=S)nc(-c2ccc(O)cc2O)c1C(=O)Nc1cccc([N+](=O)[O-])c1
GI50 (CDK2 (human) [1]; a431): 24.3 µM
GI50 (CDK2 (human) [1]; hct 116): 16.6 µM
IC50 (EGFR (human)): > 100 µM
IC50 (CDK2 (human) [2]): 28.2 µM

CC1=C(C(=O)Nc2cccc([N+](=O)[O-])c2)C(c2ccc(O)cc2O)NC(NCc2ccccc2)=N1 (stereo not given)
GI50 (CDK2 (human) [1]; hct 116): > 100 µM

CC1=CN(c2nc(C)c(C(=O)Nc3cccc([N+](=O)[O-])c3)c(-c3ccc(O)cc3O)n2)C(=O)C1=Cc1ccco1
GI50 (CDK2 (human) [1]; a431): 15.8 µM
GI50 (CDK2 (human) [1]; hct 116): > 100 µM
IC50 (EGFR (human)): > 100 µM
IC50 (CDK2 (human) [2]): 10.3 µM

CC1=C(C(=O)Nc2cccc([N+](=O)[O-])c2)C(c2ccc(O)cc2O)NC(SCc2ccccc2)=N1 (stereo not given)
GI50 (CDK2 (human) [1]; a431): > 100 µM

Cc1nc(NN)nc(-c2ccc(O)cc2O)c1C(=O)Nc1cccc([N+](=O)[O-])c1
GI50 (CDK2 (human) [1]; a431): 24.3 µM
GI50 (CDK2 (human) [1]; hct 116): 47.7 µM
IC50 (EGFR (human)): 47.9 µM
IC50 (CDK2 (human) [2]): > 100 µM

Source: the Kinase Knowledgebase extract (Sharma et al. 2016)
